# Values of other authors as cited in US6433221B1 (RPC Inc., priority 1998, dated 2002).
# Read-outs that look alike come from different tables or passages of the source.
# Tests used:
# [1] = cyclohexanone in water; for mol % H2O: balance
# [2] = water in cyclohexanone; for mol % CHxO: balance
smiles,measurement,setting,value
O=C1CCCCC1 [Cyclohexanone],mol % CHxO,[1]; 20 °C,1.98% mol %
same,wt % CHxO,[1]; 20 °C,10.00% wt %
same,mol % H2O,[1]; 20 °C,98.02% mol %
same,mol % CHxO,[1]; 25 °C,1.85% mol %
same,wt % CHxO,[1]; 25 °C,9.39% wt %
same,mol % H2O,[1]; 25 °C,98.15% mol %
same,mol % CHxO,[1]; 30 °C,1.73% mol %
same,wt % CHxO,[1]; 30 °C,8.83% wt %
same,mol % H2O,[1]; 30 °C,98.27% mol %
same,mol % CHxO,[1]; 50 °C,1.43% mol %
same,wt % CHxO,[1]; 50 °C,7.39% wt %
same,mol % H2O,[1]; 50 °C,98.57% mol %
same,mol % CHxO,[1]; 70 °C,1.34% mol %
same,wt % CHxO,[1]; 70 °C,6.95% wt %
same,mol % H2O,[1]; 70 °C,98.66% mol %
same,mol % CHxO,[1]; 90 °C,1.44% mol %
same,wt % CHxO,[1]; 90 °C,7.44% wt %
same,mol % H2O,[1]; 90 °C,98.56% mol %
O [Water],mol % H2O,[2]; 20 °C,25.1% mol %
same,wt % H2O,[2]; 20 °C,5.7% wt %
same,mol % CHxO,[2]; 20 °C,74.9% mol %
same,wt % H2O,"[2]; 20 °C, listed as water",5.7 wt %
same,mol % H2O,[2]; 25 °C,25.6% mol %
same,wt % H2O,[2]; 25 °C,5.9% wt %
same,mol % CHxO,[2]; 25 °C,74.4% mol %
same,mol % H2O,[2]; 30 °C,26.1% mol %
same,wt % H2O,[2]; 30 °C,6.0% wt %
same,mol % CHxO,[2]; 30 °C,73.9% mol %
same,mol % H2O,[2]; 50 °C,28.7% mol %
same,wt % H2O,[2]; 50 °C,6.8% wt %
same,mol % CHxO,[2]; 50 °C,71.3% mol %
same,mol % H2O,[2]; 70 °C,32.6% mol %
same,wt % H2O,[2]; 70 °C,8.1% wt %
same,mol % CHxO,[2]; 70 °C,67.4% mol %
same,mol % H2O,[2]; 90 °C,38.5% mol %
same,wt % H2O,[2]; 90 °C,10.2% wt %
same,mol % CHxO,[2]; 90 °C,61.5% mol %
